Test results as given in ChEMBL document CHEMBL1201862, “PubChem BioAssay data set” (2004).
Active and inactive are the calls of the source. Where a SMILES comes first, the peptide text is derived from it. [ ]: non-standard residue; d: D form. The star is where a group is joined. ξ: configuration not given here. ξNMe2Val = CC(C)C(C(=O)*)N(C)C; NMeV = CN[CH](C(=O)O)C(C)C; NHBn = c1ccc(CN*)cc1

Legend:
[1] = target: Beta-galactosidase (Escherichia coli, UniProt Q8VNN2); experiment: Dose response counterscreen for EBI2 assay utilizing the enzyme, b-galactosidase.; assay type: functional
[2] = target: T1, Hepatocyte nuclear factor 4-alpha (Homo sapiens, UniProt P41235); assay type: functional, cell-based;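 note: biochemical luminescence-based dose-response counterscreen measuring inhibition of HNF4 dimerization, run alongside a screen for blockers of ABHD5–perilipin-5 interaction; split luciferase complementation of HNF4 fusion proteins in cell lysate measuring dimerization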
T1 sequence (P41235 whole entry): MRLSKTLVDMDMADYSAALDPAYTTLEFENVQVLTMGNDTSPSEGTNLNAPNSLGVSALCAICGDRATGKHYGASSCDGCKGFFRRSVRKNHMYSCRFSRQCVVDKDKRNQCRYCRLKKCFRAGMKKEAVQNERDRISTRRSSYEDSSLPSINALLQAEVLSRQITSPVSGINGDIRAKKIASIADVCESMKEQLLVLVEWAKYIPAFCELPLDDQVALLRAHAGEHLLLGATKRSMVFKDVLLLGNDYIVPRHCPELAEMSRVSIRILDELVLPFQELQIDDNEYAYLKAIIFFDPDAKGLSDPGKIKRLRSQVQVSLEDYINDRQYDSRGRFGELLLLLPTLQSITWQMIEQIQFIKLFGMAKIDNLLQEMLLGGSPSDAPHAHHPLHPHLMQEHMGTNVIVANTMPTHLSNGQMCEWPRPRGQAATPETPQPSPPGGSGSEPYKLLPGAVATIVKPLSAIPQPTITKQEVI

[3] = target: T2, DNA repair and recombination protein RAD54-like (Homo sapiens, UniProt Q92698); experiment: RAD54 Holliday junction migration blockers – biochemical, fluorescence, cherry-picked samples, dose series, confirmation (AID 651657); assay type: functional
T2 sequence (Q92698 whole entry): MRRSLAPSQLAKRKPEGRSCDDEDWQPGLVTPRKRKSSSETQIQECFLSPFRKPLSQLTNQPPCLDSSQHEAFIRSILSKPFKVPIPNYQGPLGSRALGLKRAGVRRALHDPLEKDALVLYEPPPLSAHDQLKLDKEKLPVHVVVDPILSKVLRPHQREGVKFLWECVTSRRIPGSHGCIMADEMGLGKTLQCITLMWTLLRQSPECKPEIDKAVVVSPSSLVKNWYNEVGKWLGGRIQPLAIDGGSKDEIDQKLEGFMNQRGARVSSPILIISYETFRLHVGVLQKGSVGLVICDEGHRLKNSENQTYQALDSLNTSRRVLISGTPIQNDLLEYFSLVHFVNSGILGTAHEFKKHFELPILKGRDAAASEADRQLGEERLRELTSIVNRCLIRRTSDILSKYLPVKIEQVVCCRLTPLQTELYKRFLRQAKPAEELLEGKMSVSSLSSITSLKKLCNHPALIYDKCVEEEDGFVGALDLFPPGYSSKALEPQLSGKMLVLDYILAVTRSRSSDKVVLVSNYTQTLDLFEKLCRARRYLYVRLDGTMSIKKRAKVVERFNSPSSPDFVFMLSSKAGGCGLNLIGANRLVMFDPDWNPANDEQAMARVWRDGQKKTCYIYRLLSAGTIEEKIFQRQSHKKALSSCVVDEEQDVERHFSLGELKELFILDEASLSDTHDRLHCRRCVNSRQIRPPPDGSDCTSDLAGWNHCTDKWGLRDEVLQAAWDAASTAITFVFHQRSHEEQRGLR

[4] = blockers of HIV-1 envelope-mediated cell-cell fusion – cherry-pick, dose response (AID 652057); assay type: functional, cell-based
[5] = HIV-1 AD8 envelope cell-cell fusion blockers – cherry-pick, dose response (AID 652062); assay type: functional, cell-based;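 note: luciferase signal from cell-cell fusion driven by HIV-1 clade B AD8 Env; potency is for inhibitors of fusion seen as a drop in luminescence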
[6] = blockers of HIV-1 ZM109 envelope-driven cell-cell fusion – HeLa effector, CEM target cells, luciferase, cherry-pick, dose response (AID 652058); assay type: functional, cell-based;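 note: luciferase signal from HIV-1 Env mediated cell-cell fusion of effector and target cells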
[7] = target: T3, Sentrin-specific protease 1 (Homo sapiens, UniProt Q9P0U3); experiment: Dose response confirmation of small molecule inhibitors of the catalytic domain of the SUMO protease, SENP1 in a FRET assay.; assay type: functional; details: read-out: IC50_Mean
T3 sequence (Q9P0U3 whole entry): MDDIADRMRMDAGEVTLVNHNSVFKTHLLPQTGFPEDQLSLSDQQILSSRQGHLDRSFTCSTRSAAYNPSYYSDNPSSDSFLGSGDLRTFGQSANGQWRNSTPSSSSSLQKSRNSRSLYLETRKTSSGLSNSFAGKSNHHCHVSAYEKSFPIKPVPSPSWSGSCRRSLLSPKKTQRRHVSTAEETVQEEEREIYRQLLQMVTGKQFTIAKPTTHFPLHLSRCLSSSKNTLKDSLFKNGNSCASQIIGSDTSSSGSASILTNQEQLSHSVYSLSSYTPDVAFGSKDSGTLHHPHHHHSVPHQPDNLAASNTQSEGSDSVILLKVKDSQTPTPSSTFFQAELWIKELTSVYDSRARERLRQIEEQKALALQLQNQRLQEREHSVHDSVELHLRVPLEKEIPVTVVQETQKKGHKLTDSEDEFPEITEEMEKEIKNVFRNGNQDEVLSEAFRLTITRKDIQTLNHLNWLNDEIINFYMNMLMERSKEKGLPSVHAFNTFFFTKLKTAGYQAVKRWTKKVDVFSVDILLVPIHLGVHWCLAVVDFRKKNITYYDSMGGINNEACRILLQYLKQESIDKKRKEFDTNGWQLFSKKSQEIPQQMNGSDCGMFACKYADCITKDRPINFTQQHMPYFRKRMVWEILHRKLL

[8] = target: T3, Sentrin-specific protease 1; experiment: SENP1 catalytic domain blockers, concentration series – biochemical, kinetic FRET, dose response (AID 651697); assay type: functional; details: read-out: IC50_Mean
[9] = target: T4, Long-chain-fatty-acid--AMP ligase FadD28 (Mycobacterium tuberculosis, UniProt P9WQ59); experiment: Fluorescence polarization aasay to screen for inhibitors that compete for the binding of FadD28 to a bisubstrate Measured in Biochemical System Using Plate Reader - 2147-01_Inhibitor_Dose_CherryPick_Activity.; assay type: functional, Mycobacterium tuberculosis H37Rv
T4 sequence (P9WQ59 whole entry): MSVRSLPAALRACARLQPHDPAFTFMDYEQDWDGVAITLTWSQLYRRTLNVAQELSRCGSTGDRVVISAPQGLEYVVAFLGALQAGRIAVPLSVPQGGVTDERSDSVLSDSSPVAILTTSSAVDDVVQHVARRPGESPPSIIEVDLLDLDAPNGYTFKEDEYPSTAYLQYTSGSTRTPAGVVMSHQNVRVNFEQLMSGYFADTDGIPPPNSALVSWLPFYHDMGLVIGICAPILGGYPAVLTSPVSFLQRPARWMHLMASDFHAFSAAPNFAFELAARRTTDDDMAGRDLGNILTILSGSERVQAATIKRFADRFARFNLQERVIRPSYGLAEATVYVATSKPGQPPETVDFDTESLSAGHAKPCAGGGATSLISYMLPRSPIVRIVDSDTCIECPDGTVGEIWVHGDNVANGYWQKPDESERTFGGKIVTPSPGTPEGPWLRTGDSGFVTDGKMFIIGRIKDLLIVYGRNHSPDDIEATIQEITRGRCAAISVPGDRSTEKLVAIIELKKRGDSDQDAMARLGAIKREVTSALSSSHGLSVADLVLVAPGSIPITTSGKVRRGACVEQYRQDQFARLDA

[10] = target: FAD-linked sulfhydryl oxidase ALR (Homo sapiens, UniProt P55789); experiment: ALR-catalysed DTT oxidation blockers – biochemical, H2O2 detection, luminescence, cherry-pick, dose response (AID 493248)
[11] = target: Genome polyprotein (dengue virus type 2, UniProt P29990); experiment: flavivirus cap methylation enzyme inhibition – biochemical, confirmation dose response, primary screen (AID 588689); assay type: functional
[12] = cells; assay type: functional, cell-based
[13] = target: T5, Nuclear receptor subfamily 0 group B member 1 (Homo sapiens, UniProt P51843); assay type: functional, cell-based;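 note: HEK293T cells transfected with SF-1 and DAX-1 plus StAR promoter luciferase reporter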
T5 sequence (P51843 whole entry): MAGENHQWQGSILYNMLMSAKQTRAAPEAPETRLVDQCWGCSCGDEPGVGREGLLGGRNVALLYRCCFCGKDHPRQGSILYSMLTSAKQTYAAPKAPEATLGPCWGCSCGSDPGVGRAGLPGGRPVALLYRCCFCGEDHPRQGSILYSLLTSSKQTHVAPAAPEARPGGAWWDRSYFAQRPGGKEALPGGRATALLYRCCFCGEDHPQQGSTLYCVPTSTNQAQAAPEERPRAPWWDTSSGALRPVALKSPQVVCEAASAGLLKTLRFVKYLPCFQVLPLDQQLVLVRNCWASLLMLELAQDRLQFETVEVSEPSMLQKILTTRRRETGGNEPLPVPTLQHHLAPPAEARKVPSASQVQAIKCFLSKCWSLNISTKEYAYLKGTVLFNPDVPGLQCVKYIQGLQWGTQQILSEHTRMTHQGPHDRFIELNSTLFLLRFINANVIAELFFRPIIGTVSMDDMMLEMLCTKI

[14] = target: T6, DNA repair protein RAD52 homolog (Homo sapiens, UniProt P43351); assay type: functional, biochemical
T6 sequence (P43351 whole entry): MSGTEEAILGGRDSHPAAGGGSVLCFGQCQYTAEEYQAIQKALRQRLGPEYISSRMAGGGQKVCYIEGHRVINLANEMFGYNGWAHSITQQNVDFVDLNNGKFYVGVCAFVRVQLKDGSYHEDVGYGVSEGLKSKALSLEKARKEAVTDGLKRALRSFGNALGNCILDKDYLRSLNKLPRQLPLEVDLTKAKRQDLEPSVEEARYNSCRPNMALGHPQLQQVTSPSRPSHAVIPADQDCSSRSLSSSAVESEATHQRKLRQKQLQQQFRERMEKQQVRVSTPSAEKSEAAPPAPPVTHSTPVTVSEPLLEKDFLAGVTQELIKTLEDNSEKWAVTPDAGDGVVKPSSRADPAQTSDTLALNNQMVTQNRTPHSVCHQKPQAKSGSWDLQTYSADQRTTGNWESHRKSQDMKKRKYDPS

[15] = target: T7, Methionyl-tRNA synthetase, putative (Trypanosoma brucei brucei, UniProt Q38C91); assay type: functional, Trypanosoma brucei brucei strain 927/4 GUTat10.1
T7 sequence (Q38C91 whole entry): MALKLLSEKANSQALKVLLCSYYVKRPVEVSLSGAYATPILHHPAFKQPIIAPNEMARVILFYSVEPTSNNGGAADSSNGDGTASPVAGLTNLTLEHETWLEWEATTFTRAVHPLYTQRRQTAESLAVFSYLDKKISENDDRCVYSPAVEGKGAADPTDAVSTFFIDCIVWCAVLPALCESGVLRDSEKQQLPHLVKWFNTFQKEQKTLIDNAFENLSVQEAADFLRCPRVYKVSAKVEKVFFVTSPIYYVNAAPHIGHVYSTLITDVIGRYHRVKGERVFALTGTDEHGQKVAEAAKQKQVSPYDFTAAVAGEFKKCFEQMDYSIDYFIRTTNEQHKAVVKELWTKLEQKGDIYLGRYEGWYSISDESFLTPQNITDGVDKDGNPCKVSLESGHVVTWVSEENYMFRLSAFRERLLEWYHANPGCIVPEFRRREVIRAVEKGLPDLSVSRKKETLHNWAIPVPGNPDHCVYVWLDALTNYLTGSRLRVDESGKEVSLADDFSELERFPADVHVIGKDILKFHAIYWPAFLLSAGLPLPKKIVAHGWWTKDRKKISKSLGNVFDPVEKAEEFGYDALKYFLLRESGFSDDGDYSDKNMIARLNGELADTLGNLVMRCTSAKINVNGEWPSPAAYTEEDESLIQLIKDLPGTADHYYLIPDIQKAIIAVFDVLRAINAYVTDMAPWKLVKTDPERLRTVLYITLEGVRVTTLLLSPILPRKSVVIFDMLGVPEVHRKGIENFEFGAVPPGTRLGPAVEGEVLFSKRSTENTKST

[16] = Counterscreen for inhibitors of Trypanosoma brucei methionyl tRNA synthetase (MetRS): Luminescence-based cell-based high throughput dose response assay to identify compounds that are cytotoxic to Jurkat human T lymphocyte cells.; assay type: functional

Chain of Beta-galactosidase (Q8VNN2 whole entry, the tested form may be a part): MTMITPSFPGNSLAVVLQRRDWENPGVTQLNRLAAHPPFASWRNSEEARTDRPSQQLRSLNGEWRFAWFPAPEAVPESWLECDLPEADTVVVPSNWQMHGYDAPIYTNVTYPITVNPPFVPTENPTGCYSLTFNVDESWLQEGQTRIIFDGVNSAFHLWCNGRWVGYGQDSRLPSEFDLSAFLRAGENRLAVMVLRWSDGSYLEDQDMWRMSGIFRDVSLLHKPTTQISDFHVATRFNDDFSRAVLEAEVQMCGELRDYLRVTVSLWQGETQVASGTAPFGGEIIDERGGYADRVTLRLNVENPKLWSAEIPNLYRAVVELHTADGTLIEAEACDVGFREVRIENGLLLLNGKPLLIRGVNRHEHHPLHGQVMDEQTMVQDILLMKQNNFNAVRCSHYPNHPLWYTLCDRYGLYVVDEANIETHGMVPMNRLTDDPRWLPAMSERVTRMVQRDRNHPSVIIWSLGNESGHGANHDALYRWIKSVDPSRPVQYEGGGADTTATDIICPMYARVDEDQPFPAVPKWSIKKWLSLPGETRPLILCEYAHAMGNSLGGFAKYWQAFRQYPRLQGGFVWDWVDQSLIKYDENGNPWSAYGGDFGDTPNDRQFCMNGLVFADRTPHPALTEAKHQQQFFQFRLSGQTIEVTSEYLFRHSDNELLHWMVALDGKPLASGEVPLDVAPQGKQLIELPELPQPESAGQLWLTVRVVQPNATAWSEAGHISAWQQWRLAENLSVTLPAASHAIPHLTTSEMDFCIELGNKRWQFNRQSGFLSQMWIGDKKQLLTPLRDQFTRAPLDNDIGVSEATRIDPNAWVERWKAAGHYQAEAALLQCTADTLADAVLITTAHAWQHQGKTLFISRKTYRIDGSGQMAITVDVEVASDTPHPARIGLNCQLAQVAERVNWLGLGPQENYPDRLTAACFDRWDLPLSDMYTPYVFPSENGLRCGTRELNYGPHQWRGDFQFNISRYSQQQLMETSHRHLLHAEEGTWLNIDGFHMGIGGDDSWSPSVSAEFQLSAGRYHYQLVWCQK
Chain of FAD-linked sulfhydryl oxidase ALR (P55789 whole entry): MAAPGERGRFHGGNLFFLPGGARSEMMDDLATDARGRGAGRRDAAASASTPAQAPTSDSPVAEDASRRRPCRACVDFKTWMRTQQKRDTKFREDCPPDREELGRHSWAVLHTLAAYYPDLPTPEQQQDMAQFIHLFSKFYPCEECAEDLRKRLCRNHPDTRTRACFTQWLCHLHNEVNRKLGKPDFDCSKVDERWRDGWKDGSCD
Chain of Genome polyprotein (P29990 2492-3391 limits assumed): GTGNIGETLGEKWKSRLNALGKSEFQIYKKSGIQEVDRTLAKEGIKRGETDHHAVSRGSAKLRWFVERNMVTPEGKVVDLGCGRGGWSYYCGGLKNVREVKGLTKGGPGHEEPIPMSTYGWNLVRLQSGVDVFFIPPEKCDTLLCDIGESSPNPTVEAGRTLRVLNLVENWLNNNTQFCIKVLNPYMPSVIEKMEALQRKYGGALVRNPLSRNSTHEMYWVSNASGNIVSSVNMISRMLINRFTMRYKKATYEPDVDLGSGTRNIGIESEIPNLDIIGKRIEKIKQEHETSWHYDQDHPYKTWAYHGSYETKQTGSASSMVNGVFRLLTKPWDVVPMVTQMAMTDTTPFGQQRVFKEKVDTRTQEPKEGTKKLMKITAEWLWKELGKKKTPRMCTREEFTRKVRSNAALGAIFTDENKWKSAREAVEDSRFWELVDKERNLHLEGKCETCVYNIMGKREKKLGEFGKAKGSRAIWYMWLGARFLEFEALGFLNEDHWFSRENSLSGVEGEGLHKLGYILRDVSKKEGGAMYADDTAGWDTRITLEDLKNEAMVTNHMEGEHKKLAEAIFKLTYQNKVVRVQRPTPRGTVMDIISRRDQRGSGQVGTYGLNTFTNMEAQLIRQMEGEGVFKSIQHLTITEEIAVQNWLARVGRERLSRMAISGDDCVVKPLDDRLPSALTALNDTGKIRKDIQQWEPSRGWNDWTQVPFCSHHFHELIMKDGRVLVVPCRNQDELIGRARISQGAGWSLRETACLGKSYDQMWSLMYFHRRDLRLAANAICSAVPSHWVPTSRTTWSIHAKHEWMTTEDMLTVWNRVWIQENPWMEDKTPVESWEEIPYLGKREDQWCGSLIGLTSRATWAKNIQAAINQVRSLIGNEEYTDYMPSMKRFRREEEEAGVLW

O=S(=O)(c1ccc(Cl)cc1)N1CCN(Cc2nc(O)c3ccc(Cl)cc3n2)CC1
IC50 [1]: > 80 µM (inactive)

COc1ccc(C(C(=O)NC(C)(C)C)n2c(=O)c(-c3ccco3)nc3ccccc32)cc1 (configuration not stated)
IC50 [2]: 1.78 µM (active)

COC(=O)c1c(NC(=O)c2ccc(S(=O)(=O)N3CCOCC3)cc2)sc2c1CCN(C(C)C)C2
AC50 [3]: 14.7 µM (active)

C[C@H](CO)N1C[C@H](C)[C@H](CN(C)S(=O)(=O)c2ccc(Cl)cc2)Oc2ccc(NC(=O)Nc3ccc4c(c3)OCO4)cc2C1=O
AC50 [4]: 2.11 µM (active)
AC50 [5]: 13.7 µM (active)
AC50 [6]: 6.18 µM (active)

N#Cc1ccc(-c2nc3ccc(Br)cn3c2Cc2ccccc2C(F)(F)F)cc1
IC50 [7]: 11.4 µM (active)
IC50 [8]: 13.1 µM (active)

CC(C)Nc1ncnc2c1ncn2[C@H]1CN(Cc2ccc(Cl)cc2)C[C@@H](CO)O1
IC50 [1]: > 80 µM (inactive)

Cc1cc(Nc2cccc(C(F)(F)F)c2)cc(=O)n1-c1cccc(C(F)(F)F)c1
AC50 [5]: 9.49 µM (active)
AC50 [6]: 1.85 µM (active)

CC(NC(=O)c1ccc2[nH]cnc2c1)c1ccccc1 (configuration not stated)
AC50 [9]: 22.7 µM (active)

O=C(O)c1ccc(Nc2nc3ccccc3nc2NS(=O)(=O)c2ccc(F)cc2)cc1
AC50 [10]: > 100 µM (inactive)
AC50 [9]: 62.1 µM (active)
IC50 [11]: 24.9 µM (active)

CC(C)(C)OC(=O)N1CCC(C(=O)Nc2ccc3c(c2)CCC3)CC1
IC50 [12]: > 67.5 µM (inactive)
IC50 [13]: > 67.5 µM (inactive)

CC(=O)Nc1cc(-c2cccc(C(=O)NCCN(C)C)c2)cn2c(-c3ccccc3)cnc12
AC50 [14]: 4.01 µM (active)
AC50 [3]: 33.5 µM (active)

CC(C)C(NC(=O)C(C(C)C)N(C)C)C(=O)N(C)C(C(=O)N1CCCC1C(=O)N1CCCC1C(=O)NCc1ccccc1)C(C)C (configuration not stated) (ξNMe2Val-V[NMeV]PP-NHBn; configuration not given here)
IC50 [12]: > 67.5 µM (inactive)
IC50 [13]: > 67.5 µM (inactive)

COc1cccc(-c2nc3nc(C)cc(C)n3c2Nc2c(C)cccc2C)c1
IC50 [7]: 15.4 µM (active)
IC50 [8]: 28.5 µM (inactive)

COc1cc(OC)c(OC)cc1/C=N/Nc1nc2ccccc2[nH]1
IC50 [15]: 119 µM (inactive)
IC50 [16]: 83.3 µM (inactive)

N#Cc1ccc(C(C(=O)NCc2ccccc2)n2c(=O)c(-c3ccco3)nc3ccccc32)cc1 (configuration not stated)
IC50 [2]: 1.3 µM (active)

O=C1C=C(c2ccc3ncccc3c2)C[C@@H](c2ccc(Cl)cc2)C1
IC50 [1]: > 80 µM (inactive)
